Converted amounts (≈) assume the structure as drawn.
Key:
Format in all cases: cell-based
[1] = tested on: Propionibacterium acnes JCM 6425; assay: in vitro antibacterial activity on anaerobic bacteria (MIC); details: Cutibacterium acnes, JCM6425; Propionibacterium acnes JCM 6425, anaerobic; read-out: Antimicrobial spectrum MIC
Description: (§1) The in vitro antibacterial activities of the compounds provided by the present invention were tested by a standard method of Chemotherapy Society of Japan, i.e. an agar plate dilution method disclosed in CHEMOTHERAPY Vol. 29, pages 76–79, 1981, and the activities of them on anaerobic bacteria were tested by a method disclosed in CHEMOTHERAPY Vol. 27, 559–590, 1979. The results were shown in terms of the minimum inhibition concentration (MIC, μg/ml) for the growth of the bacteria.

[2] = tested on: Bacteroides thetaiotaomicron ATCC 29741; assay: as above; details: ATCC29741; Bacteroides thetaiotaomicron ATCC 29741, anaerobic; read-out: Antimicrobial spectrum MIC
Description: as §1

[3] = tested on: Bacteroides fragilis GAI 0675; assay: as above; details: GAI0675; Bacteroides fragilis GAI 0675, anaerobic; read-out: Antimicrobial spectrum MIC
Description: as §1

[4] = tested on: Bacillus subtilis JCM 2499; assay: in vitro antibacterial activity, agar plate dilution method (MIC); details: JCM2499, read-out: Antimicrobial spectrum MIC
Description: as §1

[5] = tested on: Branhamella catarrhalis IID 5233; assay: as above; details: Moraxella catarrhalis, IID5233, read-out: Antimicrobial spectrum MIC
Description: as §1

[6] = tested on: Haemophilus influenzae IID 984; assay: as above; details: IID984, read-out: Antimicrobial spectrum MIC
Description: as §1

[7] = tested on: Staphylococcus aureus IID 803(Smith); assay: as above; details: IID803, read-out: Antimicrobial spectrum MIC
Description: as §1

[8] = tested on: Enterococcus faecalis CSJ 1212; assay: as above; details: CSJ1212, read-out: Antimicrobial spectrum MIC
Description: as §1

[9] = tested on: Micrococcus luteus KI 3122; assay: as above; details: KI3122, read-out: Antimicrobial spectrum MIC
Description: as §1

[10] = tested on: Staphylococcus aureus Clin-211(MRSA); assay: as above; details: read-out: Antimicrobial spectrum MIC
Description: as §1

[11] = tested on: Klebsiella pneumoniae IID 865; assay: as above; details: IID865, read-out: Antimicrobial spectrum MIC
Description: as §1

[12] = tested on: Staphylococcus aureus IFO 13276; assay: as above; details: IFO13276, read-out: Antimicrobial spectrum MIC
Description: as §1

[13] = tested on: Streptococcus pneumoniae IID 553; assay: as above; details: IID553, read-out: Antimicrobial spectrum MIC
Description: as §1

[14] = tested on: Pseudomonas aeruginosa CSJ 1853; assay: as above; details: CSJ1853, read-out: Antimicrobial spectrum MIC
Description: as §1

[15] = tested on: Enterococcus faecalis RIMD 3116001; assay: as above; details: RIMD3116001, read-out: Antimicrobial spectrum MIC
Description: as §1

[16] = tested on: Escherichia coli IFO 12734; assay: as above; details: IFO12734, read-out: Antimicrobial spectrum MIC
Description: as §1

[17] = tested on: Staphylococcus aureus JCM 2874; assay: as above; details: JCM2874, read-out: Antimicrobial spectrum MIC
Description: as §1

[18] = tested on: Staphylococcus epidermidis IFO 12993; assay: as above; details: IFO12993, read-out: Antimicrobial spectrum MIC
Description: as §1

SMILES | MIC [1] | MIC [2] | MIC [3] | MIC [4] | MIC [5] | MIC [6] | MIC [7] | MIC [8] | MIC [9] | MIC [10] | MIC [11] | MIC [12] | MIC [13] | MIC [14] | MIC [15] | MIC [16] | MIC [17] | MIC [18]
COc1ccc(-c2ccn3c(=O)c(C(=O)O)cc(C4CC4)c3c2C)cn1 [Example 32, 1-Cyclopropyl-8-(6-methoxypyridin-3-yl)-9-methyl-4-oxo-4H-quinolizine-3-carboxylic acid] | 0.008 µg/mL (≈ 0.0228 µM) | 0.25 µg/mL (≈ 0.714 µM) | 0.063 µg/mL (≈ 0.18 µM) | ≤ 0.004 µg/mL | 0.031 µg/mL (≈ 0.0885 µM) | 0.063 µg/mL (≈ 0.18 µM) | 0.008 µg/mL (≈ 0.0228 µM) | 0.125 µg/mL (≈ 0.357 µM) | 0.25 µg/mL (≈ 0.714 µM) | 0.125 µg/mL (≈ 0.357 µM) | 0.016 µg/mL (≈ 0.0457 µM) | 0.008 µg/mL (≈ 0.0228 µM) | 0.5 µg/mL (≈ 1.43 µM) | 1 µg/mL (≈ 2.85 µM) | 0.25 µg/mL (≈ 0.714 µM) | 0.25 µg/mL (≈ 0.714 µM) | 0.016 µg/mL (≈ 0.0457 µM) | 0.016 µg/mL (≈ 0.0457 µM)
Cc1c(-c2ccc(C#N)cc2)ccn2c(=O)c(C(=O)O)cc(C3CC3)c12 [Example 36, 8-(4-Cyanophenyl)-1-cyclopropyl-9-methyl-4-oxo-4H-quinolizine-3-carboxylic acid] | 0.063 µg/mL (≈ 0.183 µM) | 0.5 µg/mL (≈ 1.45 µM) | 0.125 µg/mL (≈ 0.363 µM) | ≤ 0.004 µg/mL | 0.031 µg/mL (≈ 0.09 µM) | 0.063 µg/mL (≈ 0.183 µM) | 0.008 µg/mL (≈ 0.0232 µM) | 0.25 µg/mL (≈ 0.726 µM) | 0.125 µg/mL (≈ 0.363 µM) | 0.125 µg/mL (≈ 0.363 µM) | 0.031 µg/mL (≈ 0.09 µM) | 0.016 µg/mL (≈ 0.0465 µM) | 0.5 µg/mL (≈ 1.45 µM) | 0.5 µg/mL (≈ 1.45 µM) | 0.25 µg/mL (≈ 0.726 µM) | 0.25 µg/mL (≈ 0.726 µM) | 0.016 µg/mL (≈ 0.0465 µM) | 0.016 µg/mL (≈ 0.0465 µM)
Cc1c(-c2ccc(NCCO)cc2)ccn2c(=O)c(C(=O)O)cc(C3CC3)c12 [Example 46, 1-cyclopropyl-8-[4-(2-hydroxyethylamino)phenyl]-9-methyl-4-oxo-4H-quinolizine-3-carboxylic acid] | 0.016 µg/mL (≈ 0.0423 µM) | 0.25 µg/mL (≈ 0.661 µM) | 0.125 µg/mL (≈ 0.33 µM) | ≤ 0.004 µg/mL | 0.016 µg/mL (≈ 0.0423 µM) | 0.031 µg/mL (≈ 0.0819 µM) | ≤ 0.004 µg/mL | 0.063 µg/mL (≈ 0.166 µM) | 0.125 µg/mL (≈ 0.33 µM) | 0.031 µg/mL (≈ 0.0819 µM) | 0.063 µg/mL (≈ 0.166 µM) | ≤ 0.004 µg/mL | 0.125 µg/mL (≈ 0.33 µM) | 1 µg/mL (≈ 2.64 µM) | 0.063 µg/mL (≈ 0.166 µM) | 0.125 µg/mL (≈ 0.33 µM) | ≤ 0.004 µg/mL | 0.008 µg/mL (≈ 0.0211 µM)
Cc1ccc(-c2ccn3c(=O)c(C(=O)O)cc(C4CC4)c3c2C)cc1N [Example 63, 8-(3-Amino-4-methylphenyl)-1-cyclopropyl-9-methyl-4-oxo-4H-quinolizine-3-carboxylic acid] | 0.031 µg/mL (≈ 0.089 µM) | 0.25 µg/mL (≈ 0.718 µM) | 0.063 µg/mL (≈ 0.181 µM) | ≤ 0.004 µg/mL | 0.063 µg/mL (≈ 0.181 µM) | 0.125 µg/mL (≈ 0.359 µM) | 0.008 µg/mL (≈ 0.023 µM) | 0.5 µg/mL (≈ 1.44 µM) | 0.125 µg/mL (≈ 0.359 µM) | 0.063 µg/mL (≈ 0.181 µM) | 0.016 µg/mL (≈ 0.0459 µM) | 0.008 µg/mL (≈ 0.023 µM) | 1 µg/mL (≈ 2.87 µM) | 1 µg/mL (≈ 2.87 µM) | 1 µg/mL (≈ 2.87 µM) | 0.125 µg/mL (≈ 0.359 µM) | 0.008 µg/mL (≈ 0.023 µM) | 0.016 µg/mL (≈ 0.0459 µM)
Cc1c(-c2ccc(N)nc2)ccn2c(=O)c(C(=O)O)cc(C3CC3)c12 [Example 89, 8-(6-Aminopyridin-3-yl)-1-cyclopropyl-9-methyl-4-oxo-4H-quinolizine-3-carboxylic acid] | 0.5 µg/mL (≈ 1.49 µM) | 1 µg/mL (≈ 2.98 µM) | 0.5 µg/mL (≈ 1.49 µM) | 0.016 µg/mL (≈ 0.0477 µM) | 0.125 µg/mL (≈ 0.373 µM) | 0.031 µg/mL (≈ 0.0924 µM) | 0.063 µg/mL (≈ 0.188 µM) | 0.25 µg/mL (≈ 0.745 µM) | 0.5 µg/mL (≈ 1.49 µM) | 0.5 µg/mL (≈ 1.49 µM) | 0.016 µg/mL (≈ 0.0477 µM) | 0.031 µg/mL (≈ 0.0924 µM) | 0.5 µg/mL (≈ 1.49 µM) | 1 µg/mL (≈ 2.98 µM) | 0.5 µg/mL (≈ 1.49 µM) | 0.25 µg/mL (≈ 0.745 µM) | 0.063 µg/mL (≈ 0.188 µM) | 0.125 µg/mL (≈ 0.373 µM)
Cc1c(-c2cccc(CN(C)C)c2)ccn2c(=O)c(C(=O)O)cc(C3CC3)c12 [Example 117, 1-Cyclopropyl-8-(3-dimethylaminomethylphenyl)-9-methyl-4-oxo-4H-quinolizine-3-carboxylic acid] | 0.5 µg/mL (≈ 1.33 µM) | 1 µg/mL (≈ 2.66 µM) | 0.5 µg/mL (≈ 1.33 µM) | 0.031 µg/mL (≈ 0.0823 µM) | 0.125 µg/mL (≈ 0.332 µM) | 0.063 µg/mL (≈ 0.167 µM) | 0.063 µg/mL (≈ 0.167 µM) | 0.5 µg/mL (≈ 1.33 µM) | 1 µg/mL (≈ 2.66 µM) | 1 µg/mL (≈ 2.66 µM) | 0.031 µg/mL (≈ 0.0823 µM) | 0.063 µg/mL (≈ 0.167 µM) | 0.5 µg/mL (≈ 1.33 µM) | 1 µg/mL (≈ 2.66 µM) | 1 µg/mL (≈ 2.66 µM) | 0.5 µg/mL (≈ 1.33 µM) | 0.125 µg/mL (≈ 0.332 µM) | 0.125 µg/mL (≈ 0.332 µM)
Cc1c(-c2cccc(CN3CCNCC3)c2)ccn2c(=O)c(C(=O)O)cc(C3CC3)c12 [Example 119, 1-Cyclopropyl-9-methyl-4-oxo-8-(3-piperazin-1-ylmethylphenyl)-4H-quinolizine-3-carboxylic acid] | 2 µg/mL (≈ 4.79 µM) | 2 µg/mL (≈ 4.79 µM) | 1 µg/mL (≈ 2.4 µM) | 0.016 µg/mL (≈ 0.0383 µM) | 0.25 µg/mL (≈ 0.599 µM) | 0.25 µg/mL (≈ 0.599 µM) | 0.063 µg/mL (≈ 0.151 µM) | 0.5 µg/mL (≈ 1.2 µM) | 1 µg/mL (≈ 2.4 µM) | 1 µg/mL (≈ 2.4 µM) | 0.063 µg/mL (≈ 0.151 µM) | 0.063 µg/mL (≈ 0.151 µM) | 0.5 µg/mL (≈ 1.2 µM) | 4 µg/mL (≈ 9.58 µM) | 1 µg/mL (≈ 2.4 µM) | 1 µg/mL (≈ 2.4 µM) | 0.063 µg/mL (≈ 0.151 µM) | 0.125 µg/mL (≈ 0.299 µM)
COc1ccc(-c2ccn3c(=O)c(C(=O)O)cc(C4CC4)c3c2C)cc1CN [Example 121, 8-(3-Aminomethyl-4-methoxyphenyl)-1-cyclopropyl-9-methyl-4-oxo-4H-quinolizine-3-carboxylic acid] | 0.25 µg/mL (≈ 0.661 µM) | 4 µg/mL (≈ 10.6 µM) | 0.5 µg/mL (≈ 1.32 µM) | ≤ 0.004 µg/mL | 0.063 µg/mL (≈ 0.166 µM) | 0.008 µg/mL (≈ 0.0211 µM) | 0.016 µg/mL (≈ 0.0423 µM) | 0.031 µg/mL (≈ 0.0819 µM) | 0.125 µg/mL (≈ 0.33 µM) | 0.25 µg/mL (≈ 0.661 µM) | ≤ 0.004 µg/mL | 0.016 µg/mL (≈ 0.0423 µM) | 0.031 µg/mL (≈ 0.0819 µM) | 0.5 µg/mL (≈ 1.32 µM) | 0.063 µg/mL (≈ 0.166 µM) | 0.063 µg/mL (≈ 0.166 µM) | 0.016 µg/mL (≈ 0.0423 µM) | 0.031 µg/mL (≈ 0.0819 µM)

From US7223773B2, “4-oxoquinolizine antibacterial agent having 2-pyridone skeleton as partial structure” (Salo Pharmaceutical Co., Ltd., priority 2001, dated 2007)
